According to patent publication EP3041353B1, “COMPOSITIONS COMPRISING BACTERIOSTATIC AGENTS AND BRILLIANT BLUE G” (priority 2013, dated 2015):

How the values were obtained:
Assay in all cases: Bacteriostatic effect of Octenidin with BBG: turbidity after 24 h incubation
Assay type in all cases: cell-based
Parameters in all cases: key: +: Bakterienwachstum nach 24 h Inkubation; -: kein Bakterienwachstum nach 24 h Inkubation
Bacillus subtilis = test system: Bacillus subtilis
Experimental: (§1) Zur Untersuchung des Einflusses von BBG auf die bakteriostatische Wirkung wurden Bakterien 24 h mit erfindungsgemäßen Zusammensetzungen, Benzalkoniumchlorid (BAK) und Octenidin (Oct) als Bakteriostatikum enthielten, inkubiert. Wenn sich die Inkubationsmischung trübte, wurde das als Bakterienwachstum interpretiert. Zum Vergleich wurde Brillantblau R (BBR) anstelle von BBG eingesetzt. Die Ergebnisse sind in den Tabellen 1-4 wiedergegeben. Tabelle 1: Einfluss von BBG und BBR auf die bakteriostatische Wirkung von BAK gegenüber Escherichia coli (E. coli), + = Bakterienwachstum nach 24 h Inkubation, - = kein Bakterienwachstum nach 24 h Inkubation, R = Brillantblau R (BBR), G = Brillantblau G (BBG).
(§2) Tabelle 4: Einfluss von BBG auf die bakteriostatische Wirkung von Octenidin (Oct) gegenüber Gram-positiven Bakterien., + = Bakterienwachstum nach 24 h Inkubation, - = kein Bakterienwachstum nach 24 h Inkubation, +/- = geringes Wachstum nach 24 h Inkubation, BBG = Brillantblau G.

[1] = test system: Clavibacter michiganensis
Experimental: as §1, §2

Paenibacillus sp. = test system: Paenibacillus sp.
Experimental: as §1, §2

Measured: Bakterienwachstum nach 24 h Inkubation

CCOc1ccc(Nc2ccc(C(=C3C=CC(=[N+](CC)Cc4cccc(S(=O)(=O)[O-])c4)C=C3C)c3ccc(N(CC)Cc4cccc(S(=O)(=O)O)c4)cc3C)cc2)cc1 [BBG, Brillantblau G]
+: Bacillus subtilis; 0,007% BBG + Octenidin 0,002% | Bacillus subtilis; 0,007% BBG, Octenidin 0% | Bacillus subtilis; 0,015% BBG + Octenidin 0,002% | Bacillus subtilis; 0,015% BBG + Octenidin 0,003% | Bacillus subtilis; 0,015% BBG, Octenidin 0% | Bacillus subtilis; 0,030% BBG + Octenidin 0,002% | Bacillus subtilis; 0,030% BBG + Octenidin 0,003% | Bacillus subtilis; 0,030% BBG + Octenidin 0,005% | Bacillus subtilis; 0,030% BBG + Octenidin 0,007% | Bacillus subtilis; 0,030% BBG, Octenidin 0% | [1]; 0,007% BBG + Octenidin 0,002% | [1]; 0,007% BBG, Octenidin 0% | [1]; 0,015% BBG + Octenidin 0,002% | [1]; 0,015% BBG + Octenidin 0,003% | [1]; 0,015% BBG, Octenidin 0% | [1]; 0,030% BBG + Octenidin 0,002% | [1]; 0,030% BBG + Octenidin 0,003% | [1]; 0,030% BBG + Octenidin 0,005% | [1]; 0,030% BBG + Octenidin 0,007% | [1]; 0,030% BBG, Octenidin 0% | Paenibacillus sp.; 0,007% BBG, Octenidin 0% | Paenibacillus sp.; 0,015% BBG + Octenidin 0,002% | Paenibacillus sp.; 0,015% BBG + Octenidin 0,003% | Paenibacillus sp.; 0,015% BBG, Octenidin 0% | Paenibacillus sp.; 0,030% BBG + Octenidin 0,002% | Paenibacillus sp.; 0,030% BBG + Octenidin 0,003% | Paenibacillus sp.; 0,030% BBG + Octenidin 0,005% | Paenibacillus sp.; 0,030% BBG + Octenidin 0,007% | Paenibacillus sp.; 0,030% BBG + Octenidin 0,009% | Paenibacillus sp.; 0,030% BBG, Octenidin 0%
-: Bacillus subtilis; 0,007% BBG + Octenidin 0,01% | Bacillus subtilis; 0,007% BBG + Octenidin 0,003% | Bacillus subtilis; 0,007% BBG + Octenidin 0,005% | Bacillus subtilis; 0,007% BBG + Octenidin 0,007% | Bacillus subtilis; 0,007% BBG + Octenidin 0,009% | Bacillus subtilis; 0,015% BBG + Octenidin 0,01% | Bacillus subtilis; 0,015% BBG + Octenidin 0,005% | Bacillus subtilis; 0,015% BBG + Octenidin 0,007% | Bacillus subtilis; 0,015% BBG + Octenidin 0,009% | Bacillus subtilis; 0,030% BBG + Octenidin 0,01% | Bacillus subtilis; 0,030% BBG + Octenidin 0,009% | [1]; 0,007% BBG + Octenidin 0,01% | [1]; 0,007% BBG + Octenidin 0,003% | [1]; 0,007% BBG + Octenidin 0,005% | [1]; 0,007% BBG + Octenidin 0,007% | [1]; 0,007% BBG + Octenidin 0,009% | [1]; 0,015% BBG + Octenidin 0,01% | [1]; 0,015% BBG + Octenidin 0,005% | [1]; 0,015% BBG + Octenidin 0,007% | [1]; 0,015% BBG + Octenidin 0,009% | [1]; 0,030% BBG + Octenidin 0,01% | [1]; 0,030% BBG + Octenidin 0,009% | Paenibacillus sp.; 0,007% BBG + Octenidin 0,01% | Paenibacillus sp.; 0,007% BBG + Octenidin 0,002% | Paenibacillus sp.; 0,007% BBG + Octenidin 0,003% | Paenibacillus sp.; 0,007% BBG + Octenidin 0,005% | Paenibacillus sp.; 0,007% BBG + Octenidin 0,007% | Paenibacillus sp.; 0,007% BBG + Octenidin 0,009% | Paenibacillus sp.; 0,015% BBG + Octenidin 0,01% | Paenibacillus sp.; 0,015% BBG + Octenidin 0,005% | Paenibacillus sp.; 0,015% BBG + Octenidin 0,007% | Paenibacillus sp.; 0,015% BBG + Octenidin 0,009% | Paenibacillus sp.; 0,030% BBG + Octenidin 0,01%
